Assay results published in paper PMC11773759, “Bioactivity-guided isolation and molecular modeling of the anti-inflammatory constituents from the leaves of Duranta erecta Linn” (BMC Complementary Medicine and Therapies, 2025).

Tests used:
ovine COX-1 = molecular target: T1, ovine COX-1 (Ovis aries, UniProt P05979); assay: COX-1 inhibition assay (colorimetric COX (ovine) inhibitor screening kit)
T1 sequence (P05979 25-600): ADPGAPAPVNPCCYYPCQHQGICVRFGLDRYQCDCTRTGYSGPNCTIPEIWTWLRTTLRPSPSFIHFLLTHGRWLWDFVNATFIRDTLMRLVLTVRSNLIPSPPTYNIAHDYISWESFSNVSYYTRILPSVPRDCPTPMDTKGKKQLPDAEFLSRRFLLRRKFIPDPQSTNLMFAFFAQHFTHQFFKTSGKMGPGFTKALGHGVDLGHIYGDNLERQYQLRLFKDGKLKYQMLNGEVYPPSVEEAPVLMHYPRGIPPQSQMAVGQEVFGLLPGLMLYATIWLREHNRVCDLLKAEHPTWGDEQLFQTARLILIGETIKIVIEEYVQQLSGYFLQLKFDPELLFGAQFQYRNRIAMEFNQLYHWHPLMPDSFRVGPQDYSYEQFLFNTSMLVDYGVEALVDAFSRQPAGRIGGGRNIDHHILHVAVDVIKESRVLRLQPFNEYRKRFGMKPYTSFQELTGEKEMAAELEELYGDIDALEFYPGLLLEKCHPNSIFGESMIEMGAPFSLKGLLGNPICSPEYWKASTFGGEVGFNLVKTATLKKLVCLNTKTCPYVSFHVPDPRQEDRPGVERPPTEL
Protocol: COX-1 and 2 inhibition assay kits (K548-100 and K547-100) were purchased from Biovision Inc., California, USA. […] The absorbances were measured using a Tecan microplate reader (Infinite F50, Switzerland). […] Sigma Chemical Company (CA, USA) supplied the reagents utilized in biological experiments.
To prepare a stock concentration of 5 mg/mL, the extract and its constituent fractions were dissolved in 100% DMSO. In triplicate, samples were serially diluted from 0.1 µg/mL to 100 µg/mL. The inhibitory activity of COX was determined using a colorimetric approach, as previously described [13], and using the Cayman colorimetric COX (ovine) inhibitor screening test kit (Cayman Chemical Company, MI, USA) according to the manufacturer’s instructions. […] After initiating the reaction with 10 µL of 10 mM arachidonic acid, the mixture was incubated at 37 °C for another 2 min. To stop the reaction, 50 µL of 1 N HCl and saturated stannous chloride were added. The assays were run using 100 U of ovine COX-1 and COX-2. […] Results were presented as IC50 (µg/mL) [13].

[1] = system: carrageenan-induced rat paw edema; design: method as in PMID 12241987; conditions: cited from earlier work
5-LOX enzyme = assay: 5-Lipoxygenase (5-LOX) inhibitory assay (colorimetric LOX inhibitor screening kit); assay type: biochemical; conditions: isolated compounds
Protocol: The LOX inhibitor screening assay was carried out colorimetrically, as per the manufacturer’s instructions (Cayman Chemical Company, MI, USA). […] To initiate the enzymatic reaction, introduce 10 µL of 1 mM arachidonic acid and shake the plate for 5 min.
To halt the enzymatic process and promote colour formation, 100 µL of chromogen from the test kit was used. The plate was then shaken for a further 5 min before the absorbance at 490 nm was measured with a microplate reader.

soybean 5-LOX = system: soybean 5-LOX; design: method as in doi:10.1007/s00044-016-1677-9; conditions: in vitro; cited from earlier work
lipoxygenase = system: lipoxygenase; design: method as in PMID 26134247; conditions: dose of 0.5 mM; cited from earlier work

Row | Structure (SMILES) | IC50 (ovine COX-1) [µM] | anti-inflammatory effect in carrageenan-induced rat paw edema [1] | IC50 (5-LOX enzyme) [µM] | suppression of soybean 5-LOX (soybean 5-LOX) | inhibition of lipoxygenase (lipoxygenase)
1 | COC(=O)C1=COC(OC2OC(CO)C(O)C(O)C2O)C2C1(O)CC(O)C2(C)O (stereo not shown) [Compound 2, lamiide] | 8.5 ± 0.2 | anti-inflammatory properties | 4.9 ± 0.4 | suppresses | moderate inhibition
2 | COC(=O)C1=COC(OC2OC(CO)C(O)C(O)C2O)C2C1(O)CC(OC(=O)C=Cc1ccc(OC)c(O)c1)C2(C)O (stereo not shown) [Compound 1, duranterectoside A] | 7.3 ± 0.9 |  | 2.6 ± 0.1 |  | 
